# Assays:
# Format in all cases: in vivo
# Conditions in all cases: in vivo
# Plutella xylostella = assay: Insecticidal activities to diamondback moth, feeding dipped leaves
# Description: (§1) Mortality (%)=(the number of the survival aphis in control group−the number of the survival aphis in the treatment group)/the number of the survival aphis in control group×100%
# (4): Insecticidal Activities to Diamondback Moth
# Diamondback moth (Plutella xylostella) was tested by the way of feeding dippedleaves. Fresh cabbage leaves were immersed in above mentioned solution for 3 seconds, dried at room temperature, and fed to the tested insects. Each treatment was tested with 10 insects and repeated for 3 tumblers (3 times), while water was used as control. The number of killed insects was counted after 24 hours to calculate the mortality according to the above mentioned formula.
# Aphis craccivoral = assay: Insecticidal activities to aphids, immersion method
# Description: (1): Insecticidal Activities to Aphids
# Aphis (Aphis craccivoral), which belongs to Homoptera and has a piercing-sucking mouthpart, is a common insect for agricultural plant. Aphis craccivoral was tested by immersion method.
# Procedure: exactly weighed various samples were independently added to N,N-dimethylformamide to form 10 g/L stock solutions. The stock solutions were diluted with 0.2 mL/L aqueous Triton X-100 solution to a concentration of 500 ppm. After stably sucking on bean sprout, the wingless adult aphis together with bean sprout were dipped into 500 ppm dilution, taken out after 5 seconds, and the excess dilution was sucked off with bibulous paper. The treated wingless adult aphis was incubated in clean vessel at a constant temperature of 23° C. Each concentration was repeated for 3 times and the control group was treated with 0.2mL/L aqueous Triton X-100 solution. The number of killed aphis was counted after 24 hours and the mortality was to calculated according to the following formula:
# as §1
# [1] = tested on: Pseudaletia separate Walker; assay: Insecticidal activities to armyworm, leaf dipping and feeding
# Description: as §1
# (3): Insecticidal Activities to Armyworm
# Armyworm (Pseudaletia separate Walker) was tested by the way of leaf dipping and feeding. The test compound was exactly formulated with acetone into solutions having concentrations of 500, 250, 100, 50, 25, 12.5, 6.25, 3.13 and 1.57 ppm, respectively. Aqueous acetone solution was used as control. Fresh maize leaves were immersed in the solution for 3 seconds, dried at room temperature, and fed to the tested insects. Each treatment was tested with 10 insects and repeated for 3 tumblers (3 times). The number of killed insects was counted after 24 hours to calculate the mortality according to the above mentioned formula.
# Nilaparvata lugens = assay: Insecticidal activities to plant hopper, spraying method
# Description: as §1
# (2): Insecticidal Activities to Plant hopper
# Plant hopper (Nilaparvata lugens), which belongs to Homoptera and has a piercing-sucking mouthpart, is a common insect for agricultural plant. Nilaparvata lugens was tested by spraying method.
# Procedure: the test compound was exactly formulated with acetone to form solutions having concentrations of 500, 250, 100, 50, 25, 12.5, 6.25, 3.13, 1.57 and 0.79 ppm, respectively. Aqueous acetone solution was used as control. Each treatment was repeated for 3 tumblers (3 times). Two ml of solution was sprayed uniformly to each tumbler with a mini manual sprayer. 10 insects were introduced to every basin 6 hours before spraying. Three series of experiments were conducted. The number of killed insects was counted after 24 hours to calculate the mortality according to the above mentioned formula.
structure (smiles),measurement,setting,value
O=[N+]([O-])C(=Cc1oc(Cl)cc1Cl)C1=NCCN1Cc1ccc(Cl)nc1 [Compound 9],Plutella xylostella Mortality (%) 500 ppm,Plutella xylostella,100%
same,Aphis craccivoral Mortality (%) 500 ppm,Aphis craccivoral,100%
same,Pseudaletia separate Walker Mortality (%) 500 ppm,[1],100%
same,Nilaparvata lugens Mortality (%) 500 ppm,Nilaparvata lugens,100%
CCN(Cc1ccc(Cl)nc1)C(=NC)C(=Cc1ccco1)[N+](=O)[O-] [Compound 179],Aphis craccivoral Mortality (%) 500 ppm,Aphis craccivoral,100%
same,Nilaparvata lugens Mortality (%) 500 ppm,Nilaparvata lugens,100%
CCN(Cc1ccc(Cl)nc1)C(=NC)C(=Cc1ccc[nH]1)[N+](=O)[O-] [Compound 188],Aphis craccivoral Mortality (%) 500 ppm,Aphis craccivoral,100%
same,Nilaparvata lugens Mortality (%) 500 ppm,Nilaparvata lugens,100%
CCN=C(C(=Cc1ccc(Cl)o1)[N+](=O)[O-])N(CC)Cc1ccc(Cl)nc1 [Compound 192],Aphis craccivoral Mortality (%) 500 ppm,Aphis craccivoral,97%
same,Nilaparvata lugens Mortality (%) 500 ppm,Nilaparvata lugens,100%
CCN(Cc1ccc(Cl)nc1)C(=NC)C(=Cc1ccc([N+](=O)[O-])o1)[N+](=O)[O-] [Compound 181],Aphis craccivoral Mortality (%) 500 ppm,Aphis craccivoral,100%
same,Nilaparvata lugens Mortality (%) 500 ppm,Nilaparvata lugens,100%
CN=C(C(=Cc1ccoc1)[N+](=O)[O-])N(C)Cc1ccc(Cl)nc1 [Compound 233],Aphis craccivoral Mortality (%) 500 ppm,Aphis craccivoral,80%
same,Nilaparvata lugens Mortality (%) 500 ppm,Nilaparvata lugens,86%
CCN=C(C(=Cc1ccc[nH]1)[N+](=O)[O-])N(C)Cc1ccc(Cl)nc1 [Compound 178],Aphis craccivoral Mortality (%) 500 ppm,Aphis craccivoral,100%
same,Nilaparvata lugens Mortality (%) 500 ppm,Nilaparvata lugens,100%
CCN=C(C(=Cc1ccc([N+](=O)[O-])o1)[N+](=O)[O-])N(C)Cc1ccc(Cl)nc1 [Compound 172],Aphis craccivoral Mortality (%) 500 ppm,Aphis craccivoral,96%
same,Nilaparvata lugens Mortality (%) 500 ppm,Nilaparvata lugens,100%
CN=C(NCc1ccc(Cl)nc1)C(=Cc1ccc(Cl)o1)[N+](=O)[O-] [Compound 154],Aphis craccivoral Mortality (%) 500 ppm,Aphis craccivoral,52%
same,Nilaparvata lugens Mortality (%) 500 ppm,Nilaparvata lugens,65%
CN=C(C(=Cc1ccc(Cl)o1)[N+](=O)[O-])N(C)Cc1ccc(Cl)nc1 [Compound 164],Aphis craccivoral Mortality (%) 500 ppm,Aphis craccivoral,100%
same,Nilaparvata lugens Mortality (%) 500 ppm,Nilaparvata lugens,100%
CCN=C(C(=Cc1ccc([N+](=O)[O-])o1)[N+](=O)[O-])N(CC)Cc1ccc(Cl)nc1 [Compound 191],Aphis craccivoral Mortality (%) 500 ppm,Aphis craccivoral,95%
same,Nilaparvata lugens Mortality (%) 500 ppm,Nilaparvata lugens,100%
CCN(C(=NC)C(=Cc1ccco1)[N+](=O)[O-])C(C)c1ccc(Cl)nc1 (stereo not shown) [Compound 205],Aphis craccivoral Mortality (%) 500 ppm,Aphis craccivoral,56%
same,Nilaparvata lugens Mortality (%) 500 ppm,Nilaparvata lugens,87%
CCN=C(C(=Cc1ccc(Br)o1)[N+](=O)[O-])N(C)Cc1ccc(Cl)nc1 [Compound 174],Aphis craccivoral Mortality (%) 500 ppm,Aphis craccivoral,100%
same,Nilaparvata lugens Mortality (%) 500 ppm,Nilaparvata lugens,100%
CN=C(C(=Cc1ccc([N+](=O)[O-])s1)[N+](=O)[O-])N(C)Cc1ccc(Cl)nc1 [Compound 168],Aphis craccivoral Mortality (%) 500 ppm,Aphis craccivoral,80%
same,Nilaparvata lugens Mortality (%) 500 ppm,Nilaparvata lugens,90%
CN=C(C(=Cc1cccs1)[N+](=O)[O-])N(C)Cc1ccc(Cl)nc1 [Compound 166],Aphis craccivoral Mortality (%) 500 ppm,Aphis craccivoral,98%
same,Nilaparvata lugens Mortality (%) 500 ppm,Nilaparvata lugens,100%
CN=C(C(=Cc1ccsc1)[N+](=O)[O-])N(C)Cc1ccc(Cl)nc1 [Compound 167],Aphis craccivoral Mortality (%) 500 ppm,Aphis craccivoral,100%
same,Nilaparvata lugens Mortality (%) 500 ppm,Nilaparvata lugens,100%
CCN(Cc1ccc(Cl)nc1)C(=NC)C(=C(C)c1ccc([N+](=O)[O-])s1)[N+](=O)[O-] [Compound 202],Aphis craccivoral Mortality (%) 500 ppm,Aphis craccivoral,100%
same,Nilaparvata lugens Mortality (%) 500 ppm,Nilaparvata lugens,100%
CN=C(C(=C(C)c1ccc[nH]1)[N+](=O)[O-])N(C)Cc1ccc(Cl)nc1 [Compound 194],Aphis craccivoral Mortality (%) 500 ppm,Aphis craccivoral,98%
same,Nilaparvata lugens Mortality (%) 500 ppm,Nilaparvata lugens,100%
CN=C(C(=Cc1ccc(Br)o1)[N+](=O)[O-])N(C)Cc1ccc(Cl)nc1 [Compound 165],Aphis craccivoral Mortality (%) 500 ppm,Aphis craccivoral,100%
same,Nilaparvata lugens Mortality (%) 500 ppm,Nilaparvata lugens,100%
CN=C(C(=Cc1ccc(Cl)o1)[N+](=O)[O-])N(C)Cc1ccc(Cl)nc1 [Compound 234],Aphis craccivoral Mortality (%) 500 ppm,Aphis craccivoral,37%
same,Nilaparvata lugens Mortality (%) 500 ppm,Nilaparvata lugens,44%
CCN(C(=NC)C(=Cc1ccc[nH]1)[N+](=O)[O-])C(C)c1ccc(Cl)nc1 (stereo not shown) [Compound 211],Aphis craccivoral Mortality (%) 500 ppm,Aphis craccivoral,73%
same,Nilaparvata lugens Mortality (%) 500 ppm,Nilaparvata lugens,73%
CCN(Cc1ccc(Cl)nc1)C(=NC)C(=C(C)c1ccc[nH]1)[N+](=O)[O-] [Compound 204],Aphis craccivoral Mortality (%) 500 ppm,Aphis craccivoral,92%
same,Nilaparvata lugens Mortality (%) 500 ppm,Nilaparvata lugens,100%
CCN(Cc1ccc(Cl)nc1)C(=NC)C(=Cc1ccc[nH]1)[N+](=O)[O-] [Compound 243],Aphis craccivoral Mortality (%) 500 ppm,Aphis craccivoral,96%
same,Nilaparvata lugens Mortality (%) 500 ppm,Nilaparvata lugens,100%
CN=C(NCc1ccc(Cl)nc1)C(=Cc1ccc([N+](=O)[O-])s1)[N+](=O)[O-] [Compound 158],Aphis craccivoral Mortality (%) 500 ppm,Aphis craccivoral,43%
same,Nilaparvata lugens Mortality (%) 500 ppm,Nilaparvata lugens,43%
CCN(Cc1cnc(Cl)s1)C(=NC)C(=Cc1ccc(Cl)s1)[N+](=O)[O-] [Compound 230],Aphis craccivoral Mortality (%) 500 ppm,Aphis craccivoral,75%
same,Nilaparvata lugens Mortality (%) 500 ppm,Nilaparvata lugens,50%
CCN(Cc1ccc(Cl)nc1)C(=NC)C(=Cc1ccc([N+](=O)[O-])s1)[N+](=O)[O-] [Compound 186],Aphis craccivoral Mortality (%) 500 ppm,Aphis craccivoral,100%
same,Nilaparvata lugens Mortality (%) 500 ppm,Nilaparvata lugens,100%
CCN(Cc1ccc(Cl)nc1)C(=NC)C(=C(C)c1ccoc1)[N+](=O)[O-] [Compound 196],Aphis craccivoral Mortality (%) 500 ppm,Aphis craccivoral,100%
same,Nilaparvata lugens Mortality (%) 500 ppm,Nilaparvata lugens,100%
CN=C(NCc1ccc(Cl)nc1)C(=Cc1ccsc1)[N+](=O)[O-] [Compound 157],Aphis craccivoral Mortality (%) 500 ppm,Aphis craccivoral,100%
same,Nilaparvata lugens Mortality (%) 500 ppm,Nilaparvata lugens,97%
CCN(Cc1cnc(Cl)s1)C(=NC)C(=Cc1ccc[nH]1)[N+](=O)[O-] [Compound 231],Aphis craccivoral Mortality (%) 500 ppm,Aphis craccivoral,37%
same,Nilaparvata lugens Mortality (%) 500 ppm,Nilaparvata lugens,76%
CCN=C(C(=Cc1ccc(Cl)s1)[N+](=O)[O-])N(C)Cc1ccc(Cl)nc1 [Compound 177],Aphis craccivoral Mortality (%) 500 ppm,Aphis craccivoral,87%
same,Nilaparvata lugens Mortality (%) 500 ppm,Nilaparvata lugens,100%
CCN(Cc1ccc(Cl)nc1)C(=NC)C(=C(C)c1ccc(Br)o1)[N+](=O)[O-] [Compound 199],Aphis craccivoral Mortality (%) 500 ppm,Aphis craccivoral,84%
same,Nilaparvata lugens Mortality (%) 500 ppm,Nilaparvata lugens,100%
CN=C(C(=Cc1ccoc1)[N+](=O)[O-])N(C)Cc1ccc(Cl)nc1 [Compound 162],Aphis craccivoral Mortality (%) 500 ppm,Aphis craccivoral,100%
same,Nilaparvata lugens Mortality (%) 500 ppm,Nilaparvata lugens,100%
CN=C(C(=Cc1ccc(Br)o1)[N+](=O)[O-])N(C)Cc1cnc(Cl)s1 [Compound 219],Aphis craccivoral Mortality (%) 500 ppm,Aphis craccivoral,87%
same,Nilaparvata lugens Mortality (%) 500 ppm,Nilaparvata lugens,87%
CN=C(C(=Cc1ccc([N+](=O)[O-])s1)[N+](=O)[O-])N(C)Cc1ccc(Cl)nc1 [Compound 238],Aphis craccivoral Mortality (%) 500 ppm,Aphis craccivoral,91%
same,Nilaparvata lugens Mortality (%) 500 ppm,Nilaparvata lugens,98%
CN=C(C(=Cc1ccc[nH]1)[N+](=O)[O-])N(C)Cc1ccc(Cl)nc1 [Compound 240],Aphis craccivoral Mortality (%) 500 ppm,Aphis craccivoral,77%
same,Nilaparvata lugens Mortality (%) 500 ppm,Nilaparvata lugens,68%
CCN=C(C(=Cc1ccoc1)[N+](=O)[O-])N(C)Cc1ccc(Cl)nc1 [Compound 171],Aphis craccivoral Mortality (%) 500 ppm,Aphis craccivoral,93%
same,Nilaparvata lugens Mortality (%) 500 ppm,Nilaparvata lugens,100%
CCN=C(C(=Cc1ccco1)[N+](=O)[O-])N(CC)Cc1ccc(Cl)nc1 [Compound 189],Aphis craccivoral Mortality (%) 500 ppm,Aphis craccivoral,86%
same,Nilaparvata lugens Mortality (%) 500 ppm,Nilaparvata lugens,100%
CCN=C(C(=Cc1cccs1)[N+](=O)[O-])N(C)Cc1ccc(Cl)nc1 [Compound 175],Aphis craccivoral Mortality (%) 500 ppm,Aphis craccivoral,100%
same,Nilaparvata lugens Mortality (%) 500 ppm,Nilaparvata lugens,100%
CCN(Cc1ccc(Cl)nc1)C(=NC)C(=Cc1ccc(Br)o1)[N+](=O)[O-] [Compound 183],Aphis craccivoral Mortality (%) 500 ppm,Aphis craccivoral,100%
same,Nilaparvata lugens Mortality (%) 500 ppm,Nilaparvata lugens,100%
CCN(Cc1ccc(Cl)nc1)C(=NC)C(=C(C)c1cccs1)[N+](=O)[O-] [Compound 200],Aphis craccivoral Mortality (%) 500 ppm,Aphis craccivoral,100%
same,Nilaparvata lugens Mortality (%) 500 ppm,Nilaparvata lugens,100%
CN=C(C(=C(C)c1ccc(Cl)s1)[N+](=O)[O-])N(C)C(C)c1ccc(Cl)nc1 (stereo not shown) [Compound 215],Aphis craccivoral Mortality (%) 500 ppm,Aphis craccivoral,100%
same,Nilaparvata lugens Mortality (%) 500 ppm,Nilaparvata lugens,100%
CCN(C(=NC)C(=Cc1ccc(Br)o1)[N+](=O)[O-])C(C)c1ccc(Cl)nc1 (stereo not shown) [Compound 209],Aphis craccivoral Mortality (%) 500 ppm,Aphis craccivoral,88%
same,Nilaparvata lugens Mortality (%) 500 ppm,Nilaparvata lugens,100%
CCN(C(=NC)C(=Cc1ccc(Cl)o1)[N+](=O)[O-])C(C)c1ccc(Cl)nc1 (stereo not shown) [Compound 208],Aphis craccivoral Mortality (%) 500 ppm,Aphis craccivoral,42%
same,Nilaparvata lugens Mortality (%) 500 ppm,Nilaparvata lugens,100%

# Source: patent US8232407B2, “Nitrogenous heterocyclic compounds with insecticidal activity, and the preparation and use thereof” (East China University of Science and Technology, priority 2008, dated 2012)
